Where “and” joins values, the source holds several entries; their conditions need not be identical. Identical values can stand only once.
Assays:
BM KSL cells [1] = assay: Cytokine analysis in vitro (BM KSL cell culture supernatants); assay type: cell-based, mouse; design: PTN: unit not given beside the values; IL-5 / IL-6 / IL-9 / IL-10 / IL-12(p40) / IL-12(p70) / IL-13 / IL-17 / IP-10 / CXCL12 / EGF / DKK / G-CSF / Eotaxin / GM-CSF / KC / MCP-1 / MIP-1a / M-CSF / MIP-2 / MIG / RANTES / VEGF / TNF-a / IFN-g / IL-1a / IL-1b / IL-2 / IL-4 / IL-3: unit not given here; conditions: for IFN-g / IL-1a / IL-1b / IL-2 / IL-3 / IL-4 / IL-5 / IL-6 / IL-9 / IL-10 / IL-12(p40) / IL-12(p70) / IL-13 / IL-17 / IP-10: Supplementary Figure 6a; for CXCL12 / DKK / EGF / Eotaxin / G-CSF / GM-CSF / KC / M-CSF / MCP-1 / MIG / MIP-1a / MIP-2 / PTN / RANTES / TNF-a / VEGF: Supplementary Figure 6b
Procedure: For in vitro cytokine measurements, 3.5 × 10^4 BM KSL cells were irradiated with 300 cGy and cultured in TSF media with and without 1 μg/mL DJ001. Non-irradiated KSL cells were cultured in TSF media with and without 1 μg/mL DJ001. At 12 h of culture, culture supernatants were collected for analysis. For in vivo cytokine measurements, adult C57BL/6 mice were irradiated with 750 cGy TBI and then treated with 5 mg/kg of DJ001 or vehicle, subcutaneously, from day + 1 to day + 5. Non-irradiated mice received the identical regimen of 5 mg/kg DJ001 or vehicle for 5 days. Mice were killed and BM cells were collected into IMDM. Cells were pelleted and the BM supernatant was collected and sent to the UCLA Immune Assessment Core for cytokine analysis. All samples were tested on a mouse 32-plex Cytokine/Chemokine panel platform from EMD Milipore using Luminex’s xMAP® immunoassay technology (Luminex, Inc.). In addition, the following cytokine levels were assessed by solid-phase ELISA assay according to the manufacturer’s description: CXCL12 (R&D Systems), SCF (R&D Systems), Thrombopoietin (TPO) (R&D Systems), PTN (Biomatik), DKK1 (R&D Systems), and EGF (R&D Systems).

[2] = biological target: T1, LMPTP-A (Low Molecular Weight Protein Tyrosine Phosphatase A) (Homo sapiens, UniProt P24666); assay: PhosphataseProfiler screen: LMPTP-A; assay type: biochemical; conditions: replicates
T1 construct: purchased Eurofins Pharma Discovery Services UK
Procedure: (§1) Compound DJ001 was evaluated in a PhosphataseProfiler™ screen at 10 μM and 1 μM (2.7 μg/mL and 0.27 μg/mL) concentrations at Eurofins Pharma Discovery Services UK (Study number UK022-0004033) against a panel of 21 Phosphatases. In each experiment, the respective reference antagonist/agonist was tested directly with DJ001 and the data were compared with historical values determined at Eurofins. DJ001 compound inhibition was calculated as percentage inhibition of the enzymatic activity compared with control.

[3] = biological target: T2, VHR (Dual Specificity Phosphatase 3) (Homo sapiens, UniProt P51452); assay: PhosphataseProfiler screen: VHR; assay type: biochemical; conditions: replicates
T2 construct: purchased Eurofins Pharma Discovery Services UK
Procedure: as §1

BM KSL cells [4] = assay: CFC assay from 300 cGy-irradiated BM KSL cells, 3 day culture; assay type: cell-based, mouse
Procedure: CFC assays (colony-forming unit-granulocyte monocyte), burst-forming unit-erythroid, and CFU-GEMM were performed using MethoCult GF M3434 (Stemcell Technologies)[6]. […] Recombinant mouse SCF, Flt3 ligand, and TPO were purchased from R&D Systems. For competitive repopulation assays, BM cells were isolated from donor 10–12-week-old female CD45.2^+ mice. Recipient 10-week-old female CD45.1^+ B6.SJL mice were irradiated with 950 cGy TBI using a Cs137 irradiator and donor BM cells were administered via tail vein injection along with a competing dose of 1 × 10^5 non-irradiated host BM cells. Multilineage donor hematopoietic cell engraftment was measured in the PB by flow cytometry.

[5] = BM KSL cells, 300 cGy, 3 days in TSF media + DJ001

T2 sequence (P51452 whole entry, species assumed): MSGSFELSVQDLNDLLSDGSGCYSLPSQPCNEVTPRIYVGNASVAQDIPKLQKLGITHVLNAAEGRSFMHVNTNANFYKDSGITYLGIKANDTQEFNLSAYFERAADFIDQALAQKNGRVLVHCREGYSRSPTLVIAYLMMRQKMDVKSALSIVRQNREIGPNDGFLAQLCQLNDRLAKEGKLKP
T1 sequence (P24666 whole entry, species assumed): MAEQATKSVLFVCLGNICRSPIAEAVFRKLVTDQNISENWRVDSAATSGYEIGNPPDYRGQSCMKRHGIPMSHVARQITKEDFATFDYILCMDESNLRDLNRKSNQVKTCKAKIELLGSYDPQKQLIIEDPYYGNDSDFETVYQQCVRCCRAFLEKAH

In the case of `O=C(/C=C\Nc1cccc([N+](=O)[O-])c1)c1ccccc1` [DJ001, (Z)-3-((3-nitrophenyl)amino)-1-phenylprop-2-en-1-one], the IFN-g (BM KSL cells [1]; 300cGy) is reported as 0.77, the IL-1a (BM KSL cells [1]; 300cGy) is reported as 2.07 and 2.11 and the IL-1b (BM KSL cells [1]; 300cGy) is reported as 1.39. The IL-2 (BM KSL cells [1]; 300cGy) was 2.9, the IL-3 (BM KSL cells [1]; 300cGy) was 1 and the IL-4 (BM KSL cells [1]; 300cGy) was 0.44. The IL-5 (BM KSL cells [1]; 300cGy) was 2.67, the IL-6 (BM KSL cells [1]; 300cGy) was 0.77 and 1.04 and the IL-9 (BM KSL cells [1]; 300cGy) was 36.91. The IL-10 (BM KSL cells [1]; 300cGy) was 2.29, the “IL-12(p40)” value (BM KSL cells [1]; 300cGy) was 1.77 and 1.44 and 2.31 and the “IL-12(p70)” value (BM KSL cells [1]; 300cGy) was 3.42. It also gave an IL-13 (BM KSL cells [1]; 300cGy) of 9.36, an IL-17 (BM KSL cells [1]; 300cGy) of 1.92 and an IP-10 (BM KSL cells [1]; 300cGy) of 2.77. The CXCL12 (BM KSL cells [1]; 300cGy) was 0, the DKK (BM KSL cells [1]; 300cGy) was 0 and the EGF (BM KSL cells [1]; 300cGy) was 0. For the same compound, the Eotaxin (BM KSL cells [1]; 300cGy) was 2.69, the G-CSF (BM KSL cells [1]; 300cGy) was 0.01 and the GM-CSF (BM KSL cells [1]; 300cGy) was 5.03. For the same compound, the KC (BM KSL cells [1]; 300cGy) was 1.04, the M-CSF (BM KSL cells [1]; 300cGy) was 1.85 and 2.24 and the MCP-1 (BM KSL cells [1]; 300cGy) was 4.52. For the same compound, the MIG (BM KSL cells [1]; 300cGy) was 3.11, the MIP-1a (BM KSL cells [1]; 300cGy) was 5.42 and 8.81 and the MIP-2 (BM KSL cells [1]; 300cGy) was 16. The PTN (BM KSL cells [1]; 300cGy) was 10.6601 and 9.687 and 10.9496, the RANTES (BM KSL cells [1]; 300cGy) was 3.97 and the TNF-a (BM KSL cells [1]; 300cGy) was 4.73. For the same compound, the VEGF (BM KSL cells [1]; 300cGy) was 1.18, the “LIX levels following irradiation” value (BM KSL cells [1]; BM KSL cells, 12 h after 300 cGy, 1 μg/mL DJ001) was “decreased LIX levels” and the “other cytokines in vitro” value (BM KSL cells [1]; BM KSL cells, 12 h culture, 1 μg/mL DJ001) was “no effects on any other cytokines”. For the same compound, the IFN-g (BM KSL cells [1]; NI (non-irradiated)) was 0.77, the IL-1a (BM KSL cells [1]; NI (non-irradiated)) was 2.07 and the IL-1b (BM KSL cells [1]; NI (non-irradiated)) was 1.39. The IL-2 (BM KSL cells [1]; NI (non-irradiated)) was 2.9, the IL-3 (BM KSL cells [1]; NI (non-irradiated)) was 1 and the IL-4 (BM KSL cells [1]; NI (non-irradiated)) was 0.44. For the same compound, the IL-5 (BM KSL cells [1]; NI (non-irradiated)) was 2.67, the IL-6 (BM KSL cells [1]; NI (non-irradiated)) was 0.77 and 1.04 and the IL-9 (BM KSL cells [1]; NI (non-irradiated)) was 36.91. For the same compound, the IL-10 (BM KSL cells [1]; NI (non-irradiated)) was 2.29, the “IL-12(p40)” value (BM KSL cells [1]; NI (non-irradiated)) was 1.13 and 2.12 and 1.6 and the “IL-12(p70)” value (BM KSL cells [1]; NI (non-irradiated)) was 3.42. It also gave an IL-13 (BM KSL cells [1]; NI (non-irradiated)) of 9.36, an IL-17 (BM KSL cells [1]; NI (non-irradiated)) of 1.92 and an IP-10 (BM KSL cells [1]; NI (non-irradiated)) of 2.77. It also gave a CXCL12 (BM KSL cells [1]; NI (non-irradiated)) of 0, a DKK (BM KSL cells [1]; NI (non-irradiated)) of 0 and an EGF (BM KSL cells [1]; NI (non-irradiated)) of 0. The Eotaxin (BM KSL cells [1]; NI (non-irradiated)) was 2.69, the G-CSF (BM KSL cells [1]; NI (non-irradiated)) was 0.01 and the GM-CSF (BM KSL cells [1]; NI (non-irradiated)) was 5.03. The KC (BM KSL cells [1]; NI (non-irradiated)) was 1.04, the M-CSF (BM KSL cells [1]; NI (non-irradiated)) was 1.85 and 2.71 and the MCP-1 (BM KSL cells [1]; NI (non-irradiated)) was 4.52. The MIG (BM KSL cells [1]; NI (non-irradiated)) was 3.11, the MIP-1a (BM KSL cells [1]; NI (non-irradiated)) was 5.42 and 8.81 and the MIP-2 (BM KSL cells [1]; NI (non-irradiated)) was 16. For the same compound, the PTN (BM KSL cells [1]; NI (non-irradiated)) was 11.0625 and 10.3876 and 11.8896, the RANTES (BM KSL cells [1]; NI (non-irradiated)) was 3.97 and the TNF-a (BM KSL cells [1]; NI (non-irradiated)) was 4.73. The VEGF (BM KSL cells [1]; NI (non-irradiated)) was 1.18, the “Supplementary Figure 1: LMPTP-A activity” value ([2]; 0.27 g/mL DJ001) was 100 and 90 and 93 and the “Supplementary Figure 1: LMPTP-A activity” value ([2]; 2.7 g/mL DJ001) was 78 and 84 and 89. The “Supplementary Figure 1: VHR activity” value ([3]; 2.7 μg/mL DJ001) was 94 and 84 and 95, the “Supplementary Figure 1: VHR activity” value ([3]; 0.27 g/mL DJ001) was 100 and 101 and 98 and the “recovery of BM CFCs and CFU-GEMM colonies vs control” value (BM KSL cells [4]; 300 cGy, 1 μg/mL DJ001, 3 days) was “increased recovery of BM CFCs”. The “BFU-E, numbers per replicate” value (BM KSL cells [4]; [5]) was 2 (3×) and 4 (2×) and 3 (5×) and 1 (2×), the “GEMM, numbers per replicate” value (BM KSL cells [4]; [5]) was 5 (3×) and 3 (2×) and 4 (2×) and 6 (5×) and the CFU-GEMM (BM KSL cells [4]; Supplementary Figure 7g) was 7. For the same compound, the CFU-GEMM (BM KSL cells [4]; Supplementary Figure 7d) was 7.
